Paper PMC4548311 (Journal of Biomolecular Structure & Dynamics, 2014)

What was measured:
[1] = target: monomeric wt NP (nucleoprotein of influenza A virus) (Influenza A virus, UniProt P15682); assay: biochemical; type: binding
wt NP [2] = target: wt NP (Influenza A virus, UniProt P15682); type: biochemical
wt NP [3] = type: biochemical
influenza A virus = settings: mouse, in vivo; cited from earlier work

Sequence of wt NP (Influenza A virus, UniProt P15682) (P15682 whole entry, looked up): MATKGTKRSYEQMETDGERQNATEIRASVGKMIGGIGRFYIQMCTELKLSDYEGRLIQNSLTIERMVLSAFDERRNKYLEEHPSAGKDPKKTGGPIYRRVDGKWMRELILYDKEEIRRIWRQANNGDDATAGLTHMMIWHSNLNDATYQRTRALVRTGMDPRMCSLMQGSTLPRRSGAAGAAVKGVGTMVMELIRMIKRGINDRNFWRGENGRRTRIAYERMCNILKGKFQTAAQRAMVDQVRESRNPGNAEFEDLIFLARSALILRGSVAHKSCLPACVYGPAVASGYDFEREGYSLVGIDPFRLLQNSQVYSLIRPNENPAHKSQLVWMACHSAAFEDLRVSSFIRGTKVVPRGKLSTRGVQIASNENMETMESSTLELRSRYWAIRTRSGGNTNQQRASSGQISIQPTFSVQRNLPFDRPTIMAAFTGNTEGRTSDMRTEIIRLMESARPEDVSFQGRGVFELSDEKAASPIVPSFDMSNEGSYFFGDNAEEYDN
Sequence of monomeric wt NP (nucleoprotein of influenza A virus) (P15682 whole entry, looked up): as above

## COc1ccc2cc([C@H](C)C(=O)O)ccc2c1 [Naproxen, naproxen]
[1]
  % Total inhibition: 70 ± 7%
[1]; read-out: % Inhibition at 1 µM
  inhibition at 1 µM: 5%
Wt NP [2]
  apparent size of the NP–RNA complex: 21–23 nm
  effect on NP oligomerization into trimers–tetramers: stabilized the monomeric form
  effect on RNA-free self-association of NP: stabilized monomeric NP and avoided trimers/tetramers formation
  effect on dimer formation: impeded dimer formation
Wt NP [3]
  disruption of already assembled trimers: could not disrupt already assembled trimers
Influenza A virus
  antiviral effects in mice: antiviral effects
  lung bleeding: reduced lung bleeding
